Laboratory results reported in patent publication US20180016593A1, “HERBICIDE-RESISTANT SUNFLOWER PLANTS, POLYNUCLEOTIDES ENCODING HERBICIDE-RESISTANT ACETOHYDROXYACID SYNTHASE LARGE SUBUNIT PROTEINS, AND METHODS OF USE” (priority 2005, published 2018).

Legend:
[1] = tested on: conventional non-Clearfield variety; test: Greenhouse spray injury rating (Example 5); type: in vivo; details: non-Clearfield, 14 DAT
Source text: (§1) Methods: Sunflower lines S4897, Clearfield® sunflower varieties A, B, C and a conventional non-Clearfield variety were sprayed with three rates of imazamox (Raptor™), 100, 200 and 300 gm ai/ha plus 0.5% Sun It II and two rates of imazapyr (Arsenal™) 160 and 360 gm ai/ha plus 0.5% Sun It II when the plants were at the two to three leaf stage. Ratings were taken at 14 days after application (DAT) for injury. Injury was rated on a scale from 0 to 9 where […] to 9=dead plant. Twelve plants were sprayed per herbicide/rate treatment. Statistical analysis was conducted with STATGRAPHICS Plus 5.0 by using ANOVA and LSD procedures.
(§2) Results: After plants were sprayed, it was realized that a height difference between S4897 and other sunflower varieties would have impacted the actual herbicide dose that was delivered. The spray boom height had been calibrated against S4897 and since the other varieties were taller and closer to the boom they would have received a greater dose of herbicide. Rates were recalibrated for the other varieties to determine the approximate dose they would have received. Assessments were made as presented in Table 2 since it was not possible to make a direct rate comparison due to the effect of the height. For example injury scores were compare for S4897 treated imazamox rate 100 gm ai/ha to the other varieties treated at 75 gm ai/ha. The treatment dose of 300 gm ai/ha for line S4897 was equivalent to the treatment of 200 gm ai/ha for the other varieties, which approximately was 300 gm ai/ha.

[2] = tested on: Clearfield sunflower variety A; test: Greenhouse spray injury rating (Example 5); type: in vivo; details: variety A, 14 DAT
Source text: as §1, §2

[3] = tested on: Clearfield sunflower variety B; test: Greenhouse spray injury rating (Example 5); type: in vivo; details: variety B, 14 DAT
Source text: as §1, §2

[4] = tested on: Sunflower line S4897; test: Greenhouse spray injury rating (Example 5); type: in vivo; details: 14 DAT
Source text: as §1, §2

[5] = tested on: Clearfield sunflower variety C; test: Greenhouse spray injury rating (Example 5); type: in vivo; details: variety C, 14 DAT
Source text: as §1, §2

[6] = tested on: AHAS of S4897 sunflower plants (Ala107-to-Thr); test: AHAS activity inhibition (Example 5); type: biochemical, Helianthus annuus; details: higher concentration of imazamox; compared to a Clearfield sunflower and conventional non Clearfield variety (FIG. 7)
Description: AHAS activity analysis was also conducted by selecting actively growing young leaves from plants that were not sprayed with herbicide at approximately four weeks after planting.

[7] = tested on: S4897 sunflower plants; test: Greenhouse spray treatment with imazamox (FIG. 3, FIG. 4); type: in vivo, Helianthus annuus; details: imazamox 100 or 200 g ai/ha, evaluated 17 days after application
Description: (§3) The S4897 and IMISUN-1 sunflower plants were spray-treated with imazamox at rate of 200 g ai/ha. […] The photograph was taken a few days after the plants were spray treated.
(§4) FIG. 4 is graphical illustration of herbicide injury in a greenhouse test following the spray treatment of IMISUN-1, wild-type, and S4897 sunflower plants with imazamox at either 100 (light columns) or 200 g ai/ ha (dark columns). […] Herbicide injury was evaluated 17 days after the imazamox application.

[8] = tested on: wild-type sunflower plants; test: as above; type: in vivo, Helianthus annuus; details: imazamox at either 100 or 200 g ai/ha
Description: as §3, §4

[9] = tested on: S4897 plants; design: species or system Helianthus annuus; details: in vivo
Description: In field trials in Argentina, S4897 plants were tested for resistance to imazapic. […] This trial had single row plots and was treated on a windy day, so the actual herbicide dose reaching the plants was likely less than was applied.

## COCc1cnc(C2=NC(C)(C(C)C)C(=O)N2)c(C(=O)O)c1 (stereo not shown) [imazamox]
[1]; imazamox 75 gm ai/ha (100/75)
  Injury (scale 0 to 9): 7.2 days
[1]; imazamox 150 gm ai/ha
  Injury (scale 0 to 9): 8.2 days
[1]; imazamox 300 gm ai/ha
  Injury (scale 0 to 9): 8.7 e
[2]; imazamox 75 gm ai/ha (100/75)
  Injury (scale 0 to 9): 4.3 c
[2]; imazamox 150 gm ai/ha (column 200/150)
  Injury (scale 0 to 9): significantly in juried and had stopped growing
[2]; imazamox 150 gm ai/ha (column 200/150), listed as Imazamox
  Injury (scale 0 to 9): 4.6 c
[2]; imazamox 300 gm ai/ha
  Injury (scale 0 to 9): 6.5 days
[3]; imazamox 75 gm ai/ha (100/75)
  Injury (scale 0 to 9): 1.9 b
[3]; imazamox 150 gm ai/ha
  Injury (scale 0 to 9): 4.8 c
[3]; imazamox 300 gm ai/ha
  Injury (scale 0 to 9): 5.3 c
[4]; imazamox 100 gm ai/ha + 0.5% Sun It II, 0 no injury, 9 dead plant
  Injury (scale 0 to 9): 0.5 a
[4]; imazamox 200 gm ai/ha
  Injury (scale 0 to 9): little to no injury
[4]; imazamox 200 gm ai/ha, listed as Imazamox
  Injury (scale 0 to 9): 0.8 a
[4]; imazamox 300 gm ai/ha
  Injury (scale 0 to 9): very little injury
[4]; imazamox 300 gm ai/ha, listed as Imazamox
  Injury (scale 0 to 9): 0.8 a
[5]; imazamox 75 gm ai/ha (100/75)
  Injury (scale 0 to 9): 1.8 b
[5]; imazamox 150 gm ai/ha
  Injury (scale 0 to 9): 2.9 b
[5]; imazamox 300 gm ai/ha
  Injury (scale 0 to 9): 4.6 b
[6]
  inhibition of AHAS activity: less inhibition
[7]
  herbicide injury (resistance or tolerance vs IMISUN-1 and wild-type): significantly greater resistance or tolerance
[8]
  survival after spray treatment: did not survive

## Cc1cnc(C2=NC(=O)C(C)(C(C)C)N2)c(C(=O)O)c1 (stereo not shown) [imazapic]
[9]
  resistance to imazapic compared with IMISUN-1: clearly superior
